Measured values published in patent publication US4882349A, “Pyrrolacetic amides having antiinflammatory activity” (priority 1982, dated 1989).
Like-named read-outs stand apart in the source and are kept apart here.

Assays:
[1] = test system: phenyl-p-quinone-induced writhing (abdominal contractions); assay: phenylquinone-induced writhing test, oral administration 1-24 h before phenyl-quinone (duration of analgesia); type: in vivo, male Wistar rats
Procedure: Male Wistar rats weighing 110±5 g were caged for 10 days at 22±1° C. and given a balanced diet with free access to water. Twenty-four hours before the experiment the animals were randomized into groups of 10 and fasted for 14 hours but with free access to water. Each dose was tested in 3 groups of rats. […] alone (0.5% carboxymethyl-cellulose in physiological saline) in the control animals, each rat was given 2 ml of a 5% absolute ethanol aqueous solution containing 0.36% of phenyl-p-quinone (Sigma Chemical Company) in order to provoke writhings. Fifteen minutes after administration of phenyl-p-quinone the number of contractions were counted for 20 minutes. The inhibiting effect of the compounds under examination on the abdominal contractions induced by phenyl-p-quinone was calculated by the following formula: % protection= [formula]

[2] = test system: brewers' yeast-induced hyperthermia; assay: antipyretic activity, brewers' yeast-induced hyperthermia; type: in vivo, albino male Wistar rats
Procedure: The animals were caged under the same conditions as those described in the preceding tests. Five hours following […], determined by a rectal probe connected to a YSI thermometer (73 ATP model, Yellow Springs Instrument Company) were selected for the experiment. The animals were then randomized into groups of 10 and the compounds under examination and the vehicle were administered via the oral and parenteral routes testing each dose in two groups. Body temperature was determined at one, two and three hours after administration of the substances. […]

gastric lesions = type: in vivo, male Wistar rats; conditions: 4 consecutive days; for gastric damage index: I=mean no. of lesions+mean of severity+% incidence/10; for mean severity: scale 0 (no lesion) to 5 (perforations)
Procedure: Male Wistar rats weighing 180 g were randomized into groups of 10. Three doses of each compound were administered. One group received the vehicle alone (10 ml/kg b.w.). Each dose was given orally for four days consecutively and the rats were sacrificed on the fifth day for necropsy. The ulcerogenic effect was evaluated by the following scale:
(1) each haemorrhagic point at least 1 mm in diameter was scored as 1 lesion,
(2) haemorrhagic points less than 1 mm in diameter were scored in the following manner:
(c) 20 to 29=three lesions
By means of this scale it was possible to obtain the gastric damage index:
I=mean no. of lesions+mean of severity+% incidence/10

SMILES: Cc1ccc(C(=O)c2ccc(CC(=O)O)n2C)cc1 [Tolmetin Na.2H2 O, 1-methyl-5-p-toluoylpyrrole-2-acetic acid, reference compound]
- % Protection ([1]; 10 mg/Kg oral, 1 h before phenyl-quinone): 51.8%
- % Protection ([1]; 10 mg/Kg oral, 2 h before phenyl-quinone): 35.5%
- % Protection ([1]; 10 mg/Kg oral, 4 h before phenyl-quinone): 32.0%
- % Protection ([1]; 10 mg/Kg oral, 6 h before phenyl-quinone): 17.2%
- % Protection ([1]; 10 mg/Kg oral, 8 h before phenyl-quinone): 20.2%
- % Protection ([1]; 10 mg/Kg oral, 16 h before phenyl-quinone): 3.0%
- % Protection ([1]; 10 mg/Kg oral, 24 h before phenyl-quinone): 5.0%
- % Protection ([1]; 20 mg/Kg oral, 1 h before phenyl-quinone): 79.6%
- % Protection ([1]; 20 mg/Kg oral, 2 h before phenyl-quinone): 78.0%
- % Protection ([1]; 20 mg/Kg oral, 4 h before phenyl-quinone): 50.0%
- % Protection ([1]; 20 mg/Kg oral, 6 h before phenyl-quinone): 45.3%
- % Protection ([1]; 20 mg/Kg oral, 8 h before phenyl-quinone): 40.1%
- % Protection ([1]; 20 mg/Kg oral, 16 h before phenyl-quinone): 8.7%
- % Protection ([1]; 20 mg/Kg oral, 24 h before phenyl-quinone): 4.2%
- % Protection ([1]; 50 mg/Kg oral, 1 h before phenyl-quinone): 81.0%
- % Protection ([1]; 50 mg/Kg oral, 2 h before phenyl-quinone): 84.6%
- % Protection ([1]; 50 mg/Kg oral, 4 h before phenyl-quinone): 62.5%
- % Protection ([1]; 50 mg/Kg oral, 6 h before phenyl-quinone): 49.7%
- % Protection ([1]; 50 mg/Kg oral, 8 h before phenyl-quinone): 45.0%
- % Protection ([1]; 50 mg/Kg oral, 16 h before phenyl-quinone): 9.3%
- % Protection ([1]; 50 mg/Kg oral, 24 h before phenyl-quinone): 3.8%

SMILES: CCOC(=O)c1ccc(NC(=O)Cc2ccc(C(=O)c3ccc(C)cc3)n2C)cc1 [Compound 1-h, 1-methyl-5-p-toluoylpyrrole-2-N-(4-carboxyethyl-phenyl) acetamide]
- % Temperature decrease ([2]; 50 mg/Kg i.p., 1 h): 12.0%
- % Temperature decrease ([2]; 50 mg/Kg i.p., 2 h): 29.1%
- % Temperature decrease ([2]; 50 mg/Kg i.p., 3 h): 36.2%
- % Temperature decrease ([2]; 50 mg/Kg per os, 1 h): 13.0%
- % Temperature decrease ([2]; 50 mg/Kg per os, 2 h): 28.0%
- % Temperature decrease ([2]; 50 mg/Kg per os, 3 h): 31.1%
- % Temperature decrease ([2]; 75 mg/Kg i.p., 1 h): 18.0%
- % Temperature decrease ([2]; 75 mg/Kg i.p., 2 h): 27.2%
- % Temperature decrease ([2]; 75 mg/Kg i.p., 3 h): 39.4%
- % Temperature decrease ([2]; 75 mg/Kg per os, 1 h): 17.0%
- % Temperature decrease ([2]; 75 mg/Kg per os, 2 h): 29.1%
- % Temperature decrease ([2]; 75 mg/Kg per os, 3 h): 39.4%
- % Temperature decrease ([2]; 100 mg/Kg i.p., 1 h): 23.1%
- % Temperature decrease ([2]; 100 mg/Kg i.p., 2 h): 39.3%
- % Temperature decrease ([2]; 100 mg/Kg i.p., 3 h): 60.2%
- % Temperature decrease ([2]; 100 mg/Kg per os, 1 h): 21.0%
- % Temperature decrease ([2]; 100 mg/Kg per os, 2 h): 35.1%
- % Temperature decrease ([2]; 100 mg/Kg per os, 3 h): 51.8%
- % incidence/10 (head is drawing 38) (gastric lesions; 50 mg/Kg orally): 7
- mean no. of lesions (gastric lesions; 50 mg/Kg orally): 1
- gastric damage index (gastric lesions; 50 mg/Kg orally): 9
- mean severity (gastric lesions; 50 mg/Kg orally): 1
- % incidence/10 (head is drawing 38) (gastric lesions; 100 mg/Kg orally): 8
- mean no. of lesions (gastric lesions; 100 mg/Kg orally): 1.5
- gastric damage index (gastric lesions; 100 mg/Kg orally): 10.5
- mean severity (gastric lesions; 100 mg/Kg orally): 1
- % incidence/10 (head is drawing 38) (gastric lesions; 200 mg/Kg orally): 8
- mean no. of lesions (gastric lesions; 200 mg/Kg orally): 2
- gastric damage index (gastric lesions; 200 mg/Kg orally): 11.5
- mean severity (gastric lesions; 200 mg/Kg orally): 1.5

SMILES: Cc1ccc(C(=O)c2ccc(CC(=O)N3CCOCC3)n2C)cc1 [Compound 3-a, 1-methyl-5-p-toluoylpyrrole-2-N-(4-morpholinyl) acetamide]
- % Temperature decrease ([2]; 50 mg/Kg i.p., 1 h): 16.0%
- % Temperature decrease ([2]; 50 mg/Kg i.p., 2 h): 26.0%
- % Temperature decrease ([2]; 50 mg/Kg i.p., 3 h): 36.7%
- % Temperature decrease ([2]; 50 mg/Kg per os, 1 h): 15.5%
- % Temperature decrease ([2]; 50 mg/Kg per os, 2 h): 23.0%
- % Temperature decrease ([2]; 50 mg/Kg per os, 3 h): 32.1%
- % Temperature decrease ([2]; 75 mg/Kg i.p., 1 h): 19.0%
- % Temperature decrease ([2]; 75 mg/Kg i.p., 2 h): 30.2%
- % Temperature decrease ([2]; 75 mg/Kg i.p., 3 h): 39.4%
- % Temperature decrease ([2]; 75 mg/Kg per os, 1 h): 16.2%
- % Temperature decrease ([2]; 75 mg/Kg per os, 2 h): 29.1%
- % Temperature decrease ([2]; 75 mg/Kg per os, 3 h): 39.4%
- % Temperature decrease ([2]; 100 mg/Kg i.p., 1 h): 21.3%
- % Temperature decrease ([2]; 100 mg/Kg i.p., 2 h): 36.1%
- % Temperature decrease ([2]; 100 mg/Kg i.p., 3 h): 58.1%
- % Temperature decrease ([2]; 100 mg/Kg per os, 1 h): 22.0%
- % Temperature decrease ([2]; 100 mg/Kg per os, 2 h): 29.5%
- % Temperature decrease ([2]; 100 mg/Kg per os, 3 h): 56.1%
- % incidence/10 (head is drawing 38) (gastric lesions; 50 mg/Kg orally): 7
- mean no. of lesions (gastric lesions; 50 mg/Kg orally): 1
- gastric damage index (gastric lesions; 50 mg/Kg orally): 9
- mean severity (gastric lesions; 50 mg/Kg orally): 1
- % incidence/10 (head is drawing 38) (gastric lesions; 100 mg/Kg orally): 8
- mean no. of lesions (gastric lesions; 100 mg/Kg orally): 1.5
- gastric damage index (gastric lesions; 100 mg/Kg orally): 11.5
- mean severity (gastric lesions; 100 mg/Kg orally): 2
- % incidence/10 (head is drawing 38) (gastric lesions; 200 mg/Kg orally): 9
- mean no. of lesions (gastric lesions; 200 mg/Kg orally): 1.5
- gastric damage index (gastric lesions; 200 mg/Kg orally): 12.5
- mean severity (gastric lesions; 200 mg/Kg orally): 2

SMILES: Cc1ccc(C(=O)c2ccc(CC(=O)N3CCN(C)CC3)n2C)cc1 [Compound 3-b, 1-methyl-5-p-toluoylpyrrole-2-N-[(4-methyl)-1-piperazinyl] acetamide]
- % Temperature decrease ([2]; 50 mg/Kg i.p., 1 h): 12.9%
- % Temperature decrease ([2]; 50 mg/Kg i.p., 2 h): 23.0%
- % Temperature decrease ([2]; 50 mg/Kg i.p., 3 h): 38.3%
- % Temperature decrease ([2]; 50 mg/Kg per os, 1 h): 13.1%
- % Temperature decrease ([2]; 50 mg/Kg per os, 2 h): 21.0%
- % Temperature decrease ([2]; 50 mg/Kg per os, 3 h): 36.2%
- % Temperature decrease ([2]; 75 mg/Kg i.p., 1 h): 23.4%
- % Temperature decrease ([2]; 75 mg/Kg i.p., 2 h): 29.0%
- % Temperature decrease ([2]; 75 mg/Kg i.p., 3 h): 48.5%
- % Temperature decrease ([2]; 75 mg/Kg per os, 1 h): 19.0%
- % Temperature decrease ([2]; 75 mg/Kg per os, 2 h): 29.1%
- % Temperature decrease ([2]; 75 mg/Kg per os, 3 h): 40.6%
- % Temperature decrease ([2]; 100 mg/Kg i.p., 1 h): 32.9%
- % Temperature decrease ([2]; 100 mg/Kg i.p., 2 h): 39.0%
- % Temperature decrease ([2]; 100 mg/Kg i.p., 3 h): 60.1%
- % Temperature decrease ([2]; 100 mg/Kg per os, 1 h): 27.0%
- % Temperature decrease ([2]; 100 mg/Kg per os, 2 h): 35.0%
- % Temperature decrease ([2]; 100 mg/Kg per os, 3 h): 59.7%
- % incidence/10 (head is drawing 38) (gastric lesions; 50 mg/Kg orally): 7
- mean no. of lesions (gastric lesions; 50 mg/Kg orally): 1
- gastric damage index (gastric lesions; 50 mg/Kg orally): 9
- mean severity (gastric lesions; 50 mg/Kg orally): 1
- % incidence/10 (head is drawing 38) (gastric lesions; 100 mg/Kg orally): 7
- mean no. of lesions (gastric lesions; 100 mg/Kg orally): 1
- % incidence/10 (head is drawing 38) (gastric lesions; 200 mg/Kg orally): 8
- mean no. of lesions (gastric lesions; 200 mg/Kg orally): 2
